From the NIST ThermoML archive (doi:10.1016/j.tca.2010.07.023)
± gives the expanded uncertainty stated by the source.

What was measured:
[1] = DTA
[2] = Molar enthalpy of transition or fusion; settings: DSC

Triple point temperature ([1]; Crystal 1) [K]	Triple point temperature ([1]; Crystal 2) [K]	Triple point temperature ([1]; Crystal 3) [K]	Molar enthalpy of transition or fusion ([2]; Crystal 1) [kcal/mol]	Molar enthalpy of transition or fusion ([2]; Crystal 2) [kcal/mol]	Molar enthalpy of transition or fusion ([2]; Crystal 3) [kcal/mol]	SMILES
448 ± 1.5	364 ± 5	206.1 ± 1.4	1.41 ± 0.0717	0.0406 ± 0.0239	0.311 ± 0.0717	CC12CCC(CC1=O)C2(C)C (configuration not stated) [1,7,7-trimethylbicyclo[2.2.1]-2-heptanone]
451.8 ± 1.4	370 ± 4	242.7 ± 1.4	1.51 ± 0.12	0.0382 ± 0.0239	2.68 ± 0.12	CC1(C)[C@@H]2CC[C@@]1(C)C(=O)C2 [d-camphor]
